Legend:
Type in all cases: cell-based
[1] = molecular target: T1, ERα (Homo sapiens, UniProt P03372); experiment: ERα antagonism reporter (luciferase) assay in transfected COS-1 cells; parameters: expressed in transfected cells; host or cells: COS-1; details: sample concentration 10 μM with 100 nM E2, complete antagonism corresponding to 5.7, 18 hours
T1 sequence (P03372 1-595): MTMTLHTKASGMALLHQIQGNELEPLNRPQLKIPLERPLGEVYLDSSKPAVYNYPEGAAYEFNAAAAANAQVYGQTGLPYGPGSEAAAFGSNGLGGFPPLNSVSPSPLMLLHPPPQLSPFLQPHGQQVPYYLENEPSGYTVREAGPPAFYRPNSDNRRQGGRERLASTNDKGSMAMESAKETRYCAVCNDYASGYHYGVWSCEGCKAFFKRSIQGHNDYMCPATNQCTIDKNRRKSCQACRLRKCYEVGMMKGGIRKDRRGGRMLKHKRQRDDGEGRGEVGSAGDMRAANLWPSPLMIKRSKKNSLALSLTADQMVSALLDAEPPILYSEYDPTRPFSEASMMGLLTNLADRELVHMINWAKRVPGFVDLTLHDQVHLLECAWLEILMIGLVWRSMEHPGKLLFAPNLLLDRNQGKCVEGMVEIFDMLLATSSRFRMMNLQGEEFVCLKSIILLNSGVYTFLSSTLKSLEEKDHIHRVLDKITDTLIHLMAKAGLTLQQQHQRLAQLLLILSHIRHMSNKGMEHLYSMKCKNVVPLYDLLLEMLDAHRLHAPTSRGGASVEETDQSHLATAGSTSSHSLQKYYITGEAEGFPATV
Procedure: Determination of the Antiestrogen Activity of the Compounds.
One day before transfection, COS-1 cells were seeded into 1 ml of DMEM (Dulbecco's modified Eagle medium, Gibco) with 10% delipidated fetal bovine serum and 0,25% (vol/vol) Penicillin-Streptomysin (Euroclone) at a density of 70×10^3 cells/well. […] After transfection, the cells received treatment with test compounds giving a final concentration of 10 μM for each compound. In the antagonist test the wells were also treated with 10^−7 M estradiol. After 18 hours, the cells were washed, lysed and assayed for luciferase and normalization for β-galactosidase activities and protein concentrations. The cells were washed with 100 μl of cold phosphate buffered saline (PBS), lysed with 35 μl 1× Reporter lysis Buffer (Promega) and frosted (−70° C.) for 30 minutes. Cell lysates were placed in 1.5 ml of propylene centrifuge tubes and centrifuged with 13200 g for 5 min in room temperature. For β-galactosidase assay 10 μl of supernatant from each cell extract was transferred to a 96-well plate (96 well Elisa Microplates, PS, Microcon) and incubated for 10 min at 37° C. with 65 μl of reaction mixture consisting 0.76 gl 100×Mg-buffer, 12.5 μl ONPG (4 mg/ml), and 54.3 μl of sodium-phosphate buffer (pH 7). The reaction was stopped with treatment of 125 μl Na2CO3. […] For the study of protein concentrations 5 μl of the supernatant was transferred to a 96-well plate (96 well Elisa Microplates, PS, Microcon) and mixed with 200 μl of 1× Bio-rad protein assay reagent. The luciferase activities were measured with Thermo Luminoscan Ascent scanner and the protein concentrations and β-galactosidase activities with Thermo Labsystem Multiscan Ex scanner. Also blank and control samples were measured. During the maintenance, transfection, and treatment with tested compounds the cells were incubated in humidified atmosphere with 5% carbon dioxide at 37° C.

[2] = molecular target: T1, ERα; experiment: ERα reporter (luciferase) transactivation assay in transfected HEK293 cells; parameters: expressed in transfected cells; host or cells: HEK293; details: sample concentration 10 μM, 24 hours, mean of at least three independent transfections
In short: (§1)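 HEK293 cells in phenol-free DMEM with 5% delipidated FBS were calcium-phosphate transfected for 4 h with ERα or ERβ vector, pERE2TATA-LUC reporter and pCMVβ control. Test compound (10 μM) or vehicle was applied for 24 h, then luciferase and β-galactosidase were measured. Values are means ±SEM of ≥3 transfections.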

[3] = molecular target: ERβ (Homo sapiens, UniProt Q92731); experiment: ERβ reporter (luciferase) transactivation assay in transfected HEK293 cells; parameters: expressed in transfected cells; host or cells: HEK293; details: sample concentration 10 μM, 24 hours, mean of at least three independent transfections
In short: as §1

Sequence of ERβ (Q92731 whole entry): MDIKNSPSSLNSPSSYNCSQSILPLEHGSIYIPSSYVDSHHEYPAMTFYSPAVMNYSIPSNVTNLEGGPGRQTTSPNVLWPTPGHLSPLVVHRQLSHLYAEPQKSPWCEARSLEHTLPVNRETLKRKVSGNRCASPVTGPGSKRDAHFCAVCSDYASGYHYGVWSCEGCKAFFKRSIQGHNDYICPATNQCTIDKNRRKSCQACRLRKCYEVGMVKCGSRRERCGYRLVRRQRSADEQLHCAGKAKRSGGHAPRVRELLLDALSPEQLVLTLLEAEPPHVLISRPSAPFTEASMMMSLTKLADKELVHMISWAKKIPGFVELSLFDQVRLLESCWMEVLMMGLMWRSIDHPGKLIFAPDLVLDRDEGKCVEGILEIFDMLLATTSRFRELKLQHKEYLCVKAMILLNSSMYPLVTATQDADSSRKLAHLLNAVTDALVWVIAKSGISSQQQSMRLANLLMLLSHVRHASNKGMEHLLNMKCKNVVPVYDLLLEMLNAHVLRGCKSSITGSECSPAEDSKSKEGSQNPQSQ

Row | ERα receptor antagonism relative to 100 nM E2 corresponding 100 [1] | ERα receptor activation relative to 10 nM E2 corresponding 100 [2] | ERβ receptor activation relative to 10 nM E2 corresponding 100 [3] | Compound
1 | 55.0 | 18.7% | 37.4% | CC1(c2ccccc2)CC(CCc2ccc(O)cc2)=NO1 (single isomer, unassigned) [87b, 3-[2-(4-Hydroxy-phenyl)-ethyl]-5-methyl-5-phenyl-4,5-dihydro-isoxazole]
2 | 132.9 | – | – | Oc1ccc(CCCC2=NOC(Cc3ccccc3)C2)cc1 (centres unmarked) [99ab, 5-Benzyl-3-[3-(4-hydroxy-phenyl)-propyl]-4,5-dihydro-isoxazole]
3 | 57.9 | 21.7% | 30.0% | CC1(c2ccccc2)CC(CCc2ccccc2O)=NO1 (single isomer, unassigned) [85b, 3-[2-(2-Hydroxy-phenyl)-ethyl]-5-methyl-5-phenyl-4,5-dihydro-isoxazole]
4 | 39.4 | – | – | Oc1ccc(CCCC2=NOC(Cc3ccc(O)cc3)C2)cc1 (centres unmarked) [101ab, 5-(4-Hydroxy-benzyl)-3-[3-(4-hydroxy-phenyl)-propyl]-4,5-dihydro-isoxazole]
5 | 87.3 | 21.6% | 0.5% | CC1(c2ccccc2)CC(CCc2cccc(O)c2)=NO1 (single isomer, unassigned) [86a, 3-[2-(3-Hydroxy-phenyl)-ethyl]-5-methyl-5-phenyl-4,5-dihydro-isoxazole]
6 | 95.6 | 11.8% | −0.4% | CC1(c2ccccc2)CC(CCc2ccccc2O)=NO1 (single isomer, unassigned) [85a, 3-[2-(2-Hydroxy-phenyl)-ethyl]-5-methyl-5-phenyl-4,5-dihydro-isoxazole]
7 | 104.8 | 2.1% | −1.3% | Oc1ccc(CCCC2=NOC(Cc3ccccc3)C2)cc1O (single isomer, unassigned) [102b, 5-Benzyl-3-[3-(3,4-dihydroxy-phenyl)-propyl]-4,5-dihydro-isoxazole]
8 | 63.1 | 39.7% | 18.0% | CC1(c2ccccc2)CC(CCc2ccc(O)cc2)=NO1 (single isomer, unassigned) [87a, 3-[2-(4-Hydroxy-phenyl)-ethyl]-5-methyl-5-phenyl-4,5-dihydro-isoxazole]
9 | 64.5 | 7.6% | 18.5% | Oc1ccc(CC2=NOC(c3ccccc3)C2)cc1 (single isomer, unassigned) [84b, 3-(4-Hydroxy-benzyl)-5-phenyl-4,5-dihydro-isoxazole]
10 | 101.8 | 7.1% | −2.9% | CC1(c2ccccc2)CC(CCc2cccc(O)c2)=NO1 (single isomer, unassigned) [86b, 3-[2-(3-Hydroxy-phenyl)-ethyl]-5-methyl-5-phenyl-4,5-dihydro-isoxazole]
11 | 93.6 | 4.8% | 0.2% | Oc1ccc(CC2=NOC(c3ccccc3)C2)cc1 (single isomer, unassigned) [84a, 3-(4-Hydroxy-benzyl)-5-phenyl-4,5-dihydro-isoxazole]
12 | 115.2 | 0.3% | 1.3% | Oc1ccc(CCCC2=NOC(Cc3ccccc3)C2)cc1O (single isomer, unassigned) [102a, 5-Benzyl-3-[3-(3,4-dihydroxy-phenyl)-propyl]-4,5-dihydro-isoxazole]
